# Patent US8853188B2, “Compositions and methods for cancer treatment” (Women and Infants Hospital of RI, Inc., priority 2005, dated 2014)
# Entries after “also recorded” stand apart in the source; their conditions may differ.
# Experiments:
# IMR-32 cells = assay: Apoptosis in apoptosis-resistant NB cells; assay type: cell-based; conditions: IMR-32; data not shown
# Procedure: (§1) NB is characterized with defective apoptotic pathways. […] Neuronal (N-) type SH-SY5Y and IMR-32 cells, and stromal (S-) type SMS-KCNR cells which are resistant to apoptosis were used. […] A defect in caspase-8 or its activation causes resistance to apoptosis and in turn to chemotherapy in all these cells. On the other hand, these cells carry intact intrinsic apoptotic pathway, and executioner caspase-3 is activated by caspase-9 route.
# (§2) In depth studies were carried out to assess the activation of intrinsic and extrinsic apoptotic pathways. […] Caspase-9 was activated by B3CD in these cells (FIG. 10B), indicating an active role of intrinsic pathway of apoptosis. […] However, caspase-8 was undetectable in IMR-32 and SH-SY5Y cells.
# (§3) Although caspase-8 was detected in SMS-KCNR cells, it was not activated by B3CD (FIG. 10D). Actin immunoblotting was used as loading control in the above studies (data not shown).
# SMS-KCNR cells [1] = assay: Apoptosis in apoptosis-resistant NB cells; assay type: cell-based; conditions: data not shown
# Procedure: as §1, §2, §3
# caspase-3 [2] = assay: Caspase-3 assay in neuroblastic cells, FIG. 4B; assay type: cell-based
# Procedure: (§4) Materials and methods. Proliferation was measured by MTS and BrdU incorporation assays. Apoptosis was assessed by DNA fragmentation, Cell Death Detection ELISA and caspase-3-assays. Effect of B3CD on TrkB signaling by BDNF was assessed by Western Blot analysis of AKT and ERK phosphorylation. The effect on angiogenesis was determined by chick chorioallantoic membrane (CAM) assay and aortic ring assay.
# (§5) B3CD was tested on the panel of cell described above. […] Such cell-type specificity is not uncommon. […] However, keratinocytes were not affected by B3CD (FIG. 4A; Lane-2). In addition, caspase-3 activity was increased by B3CD (FIG. 4B). These studies indicated an underlying apoptotic mechanism in the anticancer activity of B3CD.
# ERK1/2 = assay: Western Blot analysis of ERK phosphorylation; assay type: cell-based; conditions: neuroblastoma cells
# Procedure: as §4
# (§6) Neuroblastoma cells were treated with B3CD for 48 hrs. […] AT 0.5 nM, B3CD inhibited >50% (p<0.035) and >90% at […] (p<0.01) viability and proliferation respectively.
# neuroblastic cells = assay: Apoptosis (DNA fragmentation, Cell Death Detection ELISA), FIG. 4A; assay type: cell-based
# Procedure: as §4, §5
# Caspase-9 = Caspase-9 immunoblot in NB cells; assay type: cell-based; conditions: SMS-KCNR, IMR-32 and SH-SY5Y cells
# Procedure: FIG. 10B. Caspase-9 immunoblot.
# as §2
# [3] = tested on: VEGF induced angiogenesis; assay: Chick chorioallantoic membrane (CAM) assay; assay type: in vivo
# Procedure: as §4
# The antiproliferative effect of B3CD on endothelial cells was further investigated.
# The ability of B3CD to inhibit angiogenesis/neovascularization was tested. Preliminary studies were carried out using chick chorioallantoic membrane (CAM) assay. Calcidiol or B3CD were deposited in the presence of growth factor (VEGF) and deposited on the CAM and eggs were incubated for 3 days at 37° C. (3% CO2). The control carried the growth factor alone. VEGF induces angiogenesis which results in sprouting of capillaries from the large vessels. The compounds diffuse out and any inhibitory molecule would reduce the growth of blood vessel network.
# SK-N-SH cells [4] = assay: Cell viability by MTS assay; assay type: cell-based; conditions: 48 hours
# Procedure: (§7) SK-N-SH and SH-SY5Y neuroblastic cells were treated with increasing doses of calcidiol or B3CD (0, 25, 50, 100, 200, 400 and 800 nM) for 48 hours. Cell viability was assessed by MTS assay and proliferation was determined by BrdU incorporation assay.
# caspase-3 [5] = assay: Caspase-3 activation in endothelial cells; assay type: cell-based; conditions: data not shown
# From the text: (§8) Apoptosis in EC by B3CD was studied by DNA fragmentation and caspase-3 activation analyses as before.
# cytochrome-c = assay: Cyt-C immunoblot of cytosol of NB cells; assay type: cell-based; conditions: SMS-KCNR, SH-SY5Y and IMR-32 cells
# Procedure: FIG. 10C. Cyt-C immunoblot of cytosol of NB cells: A and D-SMS-KCNR; B and E-5H-SY5Y and C and F-IMR-32.
# as §2
# caspase-3 [6] = assay: Caspase-3 immunoblot in NB cells; assay type: cell-based; conditions: SMS-KCNR, IMR-32 and SH-SY5Y cells
# Procedure: FIG. 10A. Caspase-3 immunoblot.
# as §2
# SK-N-SH cells [7] = assay: Proliferation by BrdU incorporation assay; assay type: cell-based; conditions: 0-800 nM, 48 hours
# Procedure: as §7
# endothelial cells = assay: Apoptosis in endothelial cells (DNA fragmentation); assay type: cell-based
# From the text: as §8
# TrkB signaling by BDNF = assay: Effect on TrkB signaling by BDNF (Western Blot); assay type: cell-based; conditions: neuroblastoma cells
# Procedure: as §4, §6
# AKT = assay: Western Blot analysis of AKT phosphorylation; assay type: cell-based; conditions: neuroblastoma cells
# Procedure: as §4, §6
# SK-N-SH cells [8] = assay: Cell cycle analysis; assay type: cell-based; conditions: 400 nm
# [9] = tested on: Human umbilical vein endothelial cells (HUVEC); assay: Endothelial cell viability / proliferation assay; assay type: cell-based; conditions: 25-400 nM, 24 hours
# Procedure: Human umbilical vein endothelial cells (HUVEC) were treated with B3CD (25, 50, 100, 200 and 400 nM) for 24 hours and proliferation was measured as before. Vehicle and CD treated controls were used in each experiment. […] Following the treatment with B3CD, the endothelial cells were rounded up and floated, showing indications of apoptosis similar to NB.
# SMS-KCNR cells [10] = assay: Proliferation of apoptosis-resistant NB cells; assay type: cell-based; conditions: data not shown
# Procedure: as §1, §2
smiles,measurement,setting,value
"C=C1CC[C@H](OC(=O)CBr)C/C1=C/C=C1\CCC[C@]2(C)[C@@H]([C@H](C)CCCC(C)(C)O)CC[C@@H]12 [B3CD, bromoacetic acid 3-{2-[1-(5-hydroxy-1,5-dimethyl-hexyl)-7a-methyl-octahydro-inden-4-ylidene]-ethylidene}-4-methylene-cyclohexyl ester]",induction of apoptosis,IMR-32 cells,induced apoptosis
same,induction of apoptosis,SMS-KCNR cells [1],induced apoptosis
same,caspase-3 activity,caspase-3 [2],increased; also recorded: activated caspase-3
same,phosphorylation of ERK1/2,ERK1/2,inhibited phosphorylation
same,DNA laddering (apoptosis),neuroblastic cells,distinct DNA laddering characteristic of apoptosis
same,induction of apoptosis,neuroblastic cells,induced rapid apoptosis
same,caspase-9 activation (immunoblot),Caspase-9,activated
same,inhibition of angiogenesis / neovascularization (in words),[3]; VEGF present,inhibited VEGF induced angiogenesis; also recorded: inhibit
same,inhibition of neovascularization,[3]; compared to untreated controls,~60%
same,density of fine capillary network,[3]; versus VEGF control eggs,markedly reduced
same,viability of SK-N-SH cells (in words),SK-N-SH cells [4]; 0-800 nM,dose dependent decrease
same,viability at 0.2 µM,"SK-N-SH cells [4]; Homo sapiens, SK-N-SH, 200 nM",< 20%
same,increase in caspase-3 activity,caspase-3 [5],5 fold
same,cytochrome-c release into cytosol,cytochrome-c,released into cytosol
same,caspase-3 activation (immunoblot),caspase-3 [6],activated
same,"proliferation, BrdU incorporation",SK-N-SH cells [7],strong inhibition of proliferation
same,DNA fragmentation,endothelial cells,DNA fragmentation characteristic of apoptosis
same,induction of apoptosis,endothelial cells; data not shown,induced apoptosis
same,TrkB signaling by BDNF,TrkB signaling by BDNF,inhibited
same,phosphorylation of AKT,AKT,inhibited phosphorylation
same,apoptotic cells,SK-N-SH cells [8]; 7% in control,45%
same,cell cycle effect,SK-N-SH cells [8]; data not shown,"G0/G1 block, inhibition of S-phase"
same,proliferation of EC,[9],strongly inhibited the proliferation
same,viability of EC,[9],dose dependent decrease in viability
same,inhibition of proliferation,SMS-KCNR cells [10],dose dependent inhibition of proliferation
